Reference: ChEMBL document CHEMBL6074668 (J Med Chem, 2024)
pEC50: −log10 of the molar value. Activity calls are given as the source filed them. The rule behind the calls is not given here.

Experiments:
Format in all cases: functional, cell-based
[1] = molecular target: T1, Kappa-type opioid receptor (Homo sapiens, UniProt P41145); assay: Agonist activity at human kappa opioid receptor expressed in CHO-K1 cells assessed as inhibition of forskolin-stimulated cAMP accumulation at 10 uM by HitHunter assay based luminescence analysis
T1 sequence (P41145 whole entry): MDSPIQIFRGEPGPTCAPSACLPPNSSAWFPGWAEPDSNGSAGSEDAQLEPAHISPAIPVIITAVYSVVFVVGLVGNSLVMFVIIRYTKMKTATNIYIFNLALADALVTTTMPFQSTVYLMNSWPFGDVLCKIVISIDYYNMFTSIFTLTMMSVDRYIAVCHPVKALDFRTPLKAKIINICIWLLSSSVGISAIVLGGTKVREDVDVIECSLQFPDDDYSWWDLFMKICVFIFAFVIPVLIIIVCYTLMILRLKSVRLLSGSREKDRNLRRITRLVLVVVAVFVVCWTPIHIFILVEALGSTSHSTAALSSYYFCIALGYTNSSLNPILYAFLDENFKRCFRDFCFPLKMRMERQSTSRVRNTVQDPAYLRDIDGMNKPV

[2] = molecular target: T1, Kappa-type opioid receptor; assay: Agonist activity at human kappa opioid receptor expressed in CHO-K1 cells assessed as inhibition of forskolin-stimulated cAMP accumulation by HitHunter assay based luminescence analysis relative to control
Mu-type opioid receptor [3] = molecular target: T2, Mu-type opioid receptor (Homo sapiens, UniProt P35372); assay: Agonist activity at human mu opioid receptor expressed in CHO-K1 cells assessed as inhibition of forskolin-stimulated cAMP accumulation at 10 uM by HitHunter assay based luminescence analysis
T2 sequence (P35372 whole entry): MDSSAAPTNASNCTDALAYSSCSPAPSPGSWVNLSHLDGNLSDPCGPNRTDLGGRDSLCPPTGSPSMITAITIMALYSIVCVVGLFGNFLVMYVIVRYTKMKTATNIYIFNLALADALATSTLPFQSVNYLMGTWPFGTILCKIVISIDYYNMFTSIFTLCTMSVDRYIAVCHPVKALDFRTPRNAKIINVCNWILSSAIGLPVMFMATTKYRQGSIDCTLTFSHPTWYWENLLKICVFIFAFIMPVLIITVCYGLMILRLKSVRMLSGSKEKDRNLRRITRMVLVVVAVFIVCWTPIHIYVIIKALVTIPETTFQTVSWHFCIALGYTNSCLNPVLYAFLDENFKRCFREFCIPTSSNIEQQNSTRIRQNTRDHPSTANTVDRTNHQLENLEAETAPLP

Mu-type opioid receptor [4] = molecular target: T2, Mu-type opioid receptor; assay: Agonist activity at human mu opioid receptor expressed in CHO-K1 cells assessed as inhibition of forskolin-stimulated cAMP accumulation by HitHunter assay based luminescence analysis relative to control
[5] = molecular target: T1, Kappa-type opioid receptor; assay: Agonist activity at human kappa opioid receptor expressed in CHO-K1 cells assessed as inhibition of forskolin-stimulated cAMP accumulation by HitHunter assay based luminescence analysis
[6] = molecular target: Delta-type opioid receptor (Homo sapiens) (UniProt P41143); assay: Agonist activity at human delta opioid receptor expressed in CHO-K1 cells assessed as inhibition of forskolin-stimulated cAMP accumulation at <1 uM by HitHunter assay based luminescence analysis
Chain of Delta-type opioid receptor (Homo sapiens) (P41143 whole entry): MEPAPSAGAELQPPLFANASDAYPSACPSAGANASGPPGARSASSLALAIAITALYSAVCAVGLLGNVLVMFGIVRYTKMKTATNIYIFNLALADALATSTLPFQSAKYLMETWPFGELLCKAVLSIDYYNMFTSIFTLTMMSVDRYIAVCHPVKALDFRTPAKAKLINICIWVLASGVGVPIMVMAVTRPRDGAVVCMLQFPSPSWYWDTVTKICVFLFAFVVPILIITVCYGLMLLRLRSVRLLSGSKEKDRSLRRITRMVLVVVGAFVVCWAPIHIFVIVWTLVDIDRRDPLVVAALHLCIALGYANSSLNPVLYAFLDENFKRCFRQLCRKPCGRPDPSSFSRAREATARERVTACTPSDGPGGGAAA

Question: Which Activity [1] does the source give for C/C=C1/C[N+]2(CCC)CC[C@]34C(=C(C(=O)OC)[C@H]1C[C@@H]32)Nc1ccccc14 (some centres not stated) here?
Answer: inactive

Question: And the Emax [2]?
Answer: < 10%

Question: What about the Activity (Mu-type opioid receptor [3]) of the same molecule?
Answer: inactive

Question: What about the Emax (Mu-type opioid receptor [4]) of the same molecule?
Answer: < 10%

Question: Which Activity [1] does the source give for COC(=O)C1=C2Nc3ccccc3[C@@]23CCN2C[C@@](O)([C@@H](C)O)[C@@H]1C[C@H]23 here?
Answer: inactive

Question: What about the Emax [2] of the same molecule?
Answer: < 10%

Question: And the Activity (Mu-type opioid receptor [3])?
Answer: inactive

Question: And the Emax (Mu-type opioid receptor [4])?
Answer: < 10%

Question: C=CC[N+]12CC[C@]34C(=C(C(=O)OC)[C@@H](C[C@@H]31)/C(=C\C)C2)Nc1ccc(Br)cc14 (some centres not stated) was tested. Which pEC50 [5] did it give?
Answer: 6.19

Question: And the Emax ([2]; filed as agonist)?
Answer: 100%

Question: What about the Activity (Mu-type opioid receptor [3]) of the same molecule?
Answer: inactive

Question: And the Emax (Mu-type opioid receptor [4])?
Answer: < 10%

Question: For C/C=C1/CN2CC[C@]34C(=C(C(=O)OC)[C@H]1C[C@H]23)Nc1ccc(-c2ccccc2)cc14, which Activity [6] is on record?
Answer: inactive

Question: What about the Emax ([2]; filed as agonist) of the same molecule?
Answer: 101%

Question: And the Emax (Mu-type opioid receptor [4]; filed as agonist)?
Answer: 106%

Question: With C/C=C1/C[N+]2(C)CC[C@]34C(=C(C(=O)OC)[C@H]1C[C@@H]32)Nc1ccccc14 (some centres not stated) as the molecule, how does the Activity [1] read?
Answer: inactive

Question: And the Emax [2]?
Answer: < 10%

Question: What about the Activity (Mu-type opioid receptor [3]) of the same molecule?
Answer: inactive

Question: And the Emax (Mu-type opioid receptor [4])?
Answer: < 10%

Question: How did the Activity [1] turn out when C=CC[N+]12CC[C@]34C(=C(C(=O)OC)[C@@H](C[C@@H]31)/C(=C\C)C2)Nc1ccccc14 (some centres not stated) was run?
Answer: inactive

Question: What about the Emax [2] of the same molecule?
Answer: < 10%

Question: What about the Activity (Mu-type opioid receptor [3]) of the same molecule?
Answer: inactive

Question: And the Emax (Mu-type opioid receptor [4])?
Answer: < 10%

Question: COC(=O)C1=C2Nc3ccccc3[C@@]23CCN2C[C@@](O)(C(C)=O)[C@@H]1C[C@H]23 was tested. Which Activity [1] did it give?
Answer: inactive

Question: And the Emax [2]?
Answer: < 10%

Question: What about the Activity (Mu-type opioid receptor [3]) of the same molecule?
Answer: inactive

Question: And the Emax (Mu-type opioid receptor [4])?
Answer: < 10%

Question: Which Activity [1] does the source give for COC(=O)C1=C2Nc3ccc(Br)cc3[C@@]23CCN2C[C@@](O)([C@@H](C)O)[C@@H]1C[C@H]23 here?
Answer: inactive

Question: And the Emax [2]?
Answer: < 10%

Question: What about the Activity (Mu-type opioid receptor [3]) of the same molecule?
Answer: inactive

Question: What about the Emax (Mu-type opioid receptor [4]) of the same molecule?
Answer: < 10%

Question: C/C=C1/C[N+]2(CC3CC3)CC[C@]34C(=C(C(=O)OC)[C@H]1C[C@@H]32)Nc1ccc(Br)cc14 (some centres not stated) was tested. Which Emax ([2]; filed as agonist) did it give?
Answer: 94%

Question: And the Activity (Mu-type opioid receptor [3])?
Answer: inactive

Question: What about the Emax (Mu-type opioid receptor [4]) of the same molecule?
Answer: < 10%

Question: For C/C=C1/CN2CC[C@]34c5cc(Br)ccc5NC3C(C(=O)OC)[C@H]1C[C@H]24 (some centres not stated), which Emax ([2]; filed as agonist) is on record?
Answer: 100%

Question: C[C@@H](NC(=O)[C@@H](N)Cc1ccc(O)cc1)C(=O)NCC(=O)N(C)[C@@H](Cc1ccccc1)C(=O)NCCO was tested. Which Activity [1] did it give?
Answer: inactive

Question: How did the pEC50 [5] turn out when C/C=C1/CN2CC[C@]34c5cc(I)ccc5NC3C(C(=O)OC)[C@H]1C[C@H]24 (some centres not stated) was run?
Answer: 7.62

Question: And the Activity [6]?
Answer: inactive

Question: And the Emax ([2]; filed as agonist)?
Answer: 100%

Question: And the Activity (Mu-type opioid receptor [3])?
Answer: inactive

Question: And the Emax (Mu-type opioid receptor [4])?
Answer: < 10%

Question: Which results are given for C/C=C1/C[N+]2(CC3CC3)CC[C@]34C(=C(C(=O)OC)[C@H]1C[C@@H]32)Nc1ccccc14 (some centres not stated)?
Answer: pEC50 [5]: 5.33; Emax ([2]; filed as agonist): 113%; Activity (Mu-type opioid receptor [3]): inactive; Emax (Mu-type opioid receptor [4]): < 10%

Question: Which results are given for C/C=C1/CN2CC[C@]34C(=C(C(=O)OC)[C@H]1C[C@H]23)Nc1ccc(-c2ccsc2)cc14?
Answer: Activity [6]: inactive; Emax ([2]; filed as agonist): 104%; Emax (Mu-type opioid receptor [4]; filed as agonist): 107%

Question: How did the pEC50 [5] turn out when C/C=C1/C[N+]2(C)CC[C@]34C(=C(C(=O)OC)[C@H]1C[C@@H]32)Nc1ccc(Br)cc14 (some centres not stated) was run?
Answer: 6.03

Question: What about the Emax ([2]; filed as agonist) of the same molecule?
Answer: 102%

Question: What about the Activity (Mu-type opioid receptor [3]) of the same molecule?
Answer: inactive

Question: What about the Emax (Mu-type opioid receptor [4]) of the same molecule?
Answer: < 10%

Question: What does the source list for CC[C@@H]1CN2CC[C@]34c5ccccc5N[C@@H]3[C@H](C(=O)OC)[C@H]1C[C@H]24?
Answer: Activity [1]: inactive; Emax [2]: < 10%; Activity (Mu-type opioid receptor [3]): inactive; Emax (Mu-type opioid receptor [4]): < 10%

Question: CC[C@@H]1CN2CC[C@]34C(=C(C(=O)OC)[C@H]1C[C@H]23)Nc1ccccc14 was tested. Which pEC50 [5] did it give?
Answer: 5.80

Question: And the Emax ([2]; filed as agonist)?
Answer: 99%

Question: And the Activity (Mu-type opioid receptor [3])?
Answer: inactive

Question: And the Emax (Mu-type opioid receptor [4])?
Answer: < 10%

Question: With C/C=C1/C[N+]2(Cc3ccccc3)CC[C@]34C(=C(C(=O)OC)[C@H]1C[C@@H]32)Nc1ccccc14 (some centres not stated) as the molecule, how does the Activity [1] read?
Answer: inactive

Question: And the Emax [2]?
Answer: < 10%

Question: And the Emax (Mu-type opioid receptor [4]; filed as agonist)?
Answer: 112%

Question: What does the source list for C/C=C1/CN2CC[C@]34C(=C(C(=O)OC)[C@H]1C[C@H]23)Nc1ccc(C#N)cc14?
Answer: pEC50 [5]: 7.09; Activity [6]: inactive; Emax ([2]; filed as agonist): 102%; Activity (Mu-type opioid receptor [3]): inactive; Emax (Mu-type opioid receptor [4]): < 10%

Question: Which results are given for C/C=C1/CN2CC[C@]34c5ccccc5N[C@@H]3[C@H](C(=O)OC)[C@H]1C[C@H]24?
Answer: Activity [1]: inactive; Emax [2]: < 10%; Activity (Mu-type opioid receptor [3]): inactive; Emax (Mu-type opioid receptor [4]): < 10%
